In patent US8030336B2, “Nicotinamide-based kinase inhibitors” (YM Biosciences Australia Pty Ltd, priority 2002, dated 2011):

Experiments:
Assay type in all cases: biochemical
human JAK2 = biological target: T1, human JAK2 (Homo sapiens, UniProt O60674); assay: JAK2 kinase assay (ELISA or Alphascreen); conditions: read-out: Jak2 inhibition of enzyme activity
T1 construct: The kinase domain of human JAK2 was amplified from U937mRNA; His tag (from the pFastBac HTc vector) (N); made in house; host or cells: baculovirus; Sf9 for virus, High Five insect cells for production
T1 sequence (O60674 849-1124 limits assumed): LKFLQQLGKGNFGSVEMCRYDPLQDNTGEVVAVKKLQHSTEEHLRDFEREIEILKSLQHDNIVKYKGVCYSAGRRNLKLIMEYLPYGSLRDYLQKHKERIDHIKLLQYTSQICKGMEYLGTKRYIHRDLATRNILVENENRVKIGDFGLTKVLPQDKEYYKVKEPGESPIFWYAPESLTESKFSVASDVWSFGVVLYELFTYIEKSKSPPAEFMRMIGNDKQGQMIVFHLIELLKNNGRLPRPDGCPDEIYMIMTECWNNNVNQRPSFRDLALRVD
In short: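 His-tagged human JAK2 kinase domain from baculovirus-infected insect cells, ~1.5 μg per assay, in 50 mM HEPES pH 7.5, 10 mM MgCl2, 150 mM NaCl, with 10 μM–1 mM ATP and 5 μM biotinylated peptide substrate. Phosphotyrosine detected by PY20 ELISA or AlphaScreen.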

human JAK3 = biological target: T2, human JAK3 (Homo sapiens, UniProt P52333); assay: JAK3 kinase assay (ELISA or Alphascreen); conditions: read-out: Jak3 inhibition of enzyme activity
T2 construct: The kinase domain of human JAK3 was amplified from U937mRNA; His tag (from the pFastBac HTb vector) (N); made in house; host or cells: baculovirus; Sf9 for virus, High Five insect cells for production
T2 sequence (P52333 822-1111 limits assumed): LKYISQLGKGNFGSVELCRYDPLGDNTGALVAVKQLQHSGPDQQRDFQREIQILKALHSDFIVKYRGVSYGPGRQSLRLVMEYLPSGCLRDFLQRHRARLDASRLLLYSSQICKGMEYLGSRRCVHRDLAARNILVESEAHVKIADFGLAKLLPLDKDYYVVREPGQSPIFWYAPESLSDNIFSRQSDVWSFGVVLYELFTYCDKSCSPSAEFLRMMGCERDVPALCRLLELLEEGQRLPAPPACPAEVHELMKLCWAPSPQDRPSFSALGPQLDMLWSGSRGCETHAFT
In short: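 Read-out: anti-phosphotyrosine detection of a 5 μM biotin-peptide substrate, via PY20-peroxidase ELISA or Alphascreen beads. Enzyme was nickel-purified recombinant JAK3 kinase domain (~1.5 μg), with ATP at 10 μM-1 mM, pH 7.5 HEPES/MgCl2/NaCl.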

abl = biological target: T3, abl (Homo sapiens, UniProt P00519); assay: abl kinase assay (ELISA or Alphascreen); conditions: read-out: abl inhibition of enzyme activity
T3 sequence (P00519 242-493 limits assumed): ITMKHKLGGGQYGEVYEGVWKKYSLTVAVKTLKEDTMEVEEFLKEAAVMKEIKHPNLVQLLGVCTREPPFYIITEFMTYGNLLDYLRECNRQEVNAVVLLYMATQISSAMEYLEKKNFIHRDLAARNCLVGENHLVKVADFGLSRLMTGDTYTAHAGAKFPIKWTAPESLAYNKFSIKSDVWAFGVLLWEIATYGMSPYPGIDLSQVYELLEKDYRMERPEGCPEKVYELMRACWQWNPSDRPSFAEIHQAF
In short: (§1)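 PTK domain ~1.5 μg; 50 mM HEPES pH 7.5, 10 mM MgCl2, 150 mM NaCl; ATP 10 μM-1 mM; biotinylated peptide 5 μM final. Read-out: avidin-capture ELISA with PY20 or Alphascreen pTyr acceptor/streptavidin donor beads.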

fes = fes (Homo sapiens, UniProt P07332); assay: fes kinase assay (ELISA or Alphascreen); conditions: read-out: fes inhibition of enzyme activity
fes, sequence (P07332 561-822 limits assumed, species assumed): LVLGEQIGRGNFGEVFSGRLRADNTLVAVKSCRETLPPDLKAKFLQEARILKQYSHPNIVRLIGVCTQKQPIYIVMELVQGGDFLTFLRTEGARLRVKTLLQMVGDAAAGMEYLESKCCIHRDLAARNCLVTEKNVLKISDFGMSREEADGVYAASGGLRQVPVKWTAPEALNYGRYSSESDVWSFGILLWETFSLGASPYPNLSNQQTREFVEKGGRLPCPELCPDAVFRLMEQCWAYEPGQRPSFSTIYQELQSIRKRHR
In short: as §1

fms = biological target: T4, fms (Homo sapiens, UniProt P07333); assay: fms kinase assay (ELISA or Alphascreen); conditions: read-out: fms inhibition of enzyme activity
T4 sequence (P07333 582-910 limits assumed): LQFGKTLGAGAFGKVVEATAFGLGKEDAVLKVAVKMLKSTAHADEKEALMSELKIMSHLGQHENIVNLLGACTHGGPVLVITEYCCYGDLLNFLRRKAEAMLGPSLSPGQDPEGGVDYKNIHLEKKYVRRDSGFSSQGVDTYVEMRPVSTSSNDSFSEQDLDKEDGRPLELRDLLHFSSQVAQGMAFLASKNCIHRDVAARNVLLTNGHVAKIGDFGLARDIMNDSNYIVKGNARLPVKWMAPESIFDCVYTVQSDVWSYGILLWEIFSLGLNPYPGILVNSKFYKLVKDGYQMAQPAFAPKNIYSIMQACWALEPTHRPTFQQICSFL
In short: as §1

hck = hck (Homo sapiens, UniProt P08631); assay: hck kinase assay (ELISA or Alphascreen); conditions: read-out: hck inhibition of enzyme activity
hck, sequence (P08631 262-515 limits assumed, species assumed): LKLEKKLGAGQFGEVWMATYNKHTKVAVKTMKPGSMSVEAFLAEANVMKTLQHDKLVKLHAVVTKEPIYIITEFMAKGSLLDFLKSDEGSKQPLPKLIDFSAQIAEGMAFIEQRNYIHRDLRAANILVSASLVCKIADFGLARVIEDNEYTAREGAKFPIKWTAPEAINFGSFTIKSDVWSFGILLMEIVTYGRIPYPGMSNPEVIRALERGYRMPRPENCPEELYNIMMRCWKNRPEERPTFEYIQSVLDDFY
In short: as §1

Zap70 = biological target: T5, Zap70 (Homo sapiens, UniProt P43403); assay: Zap70 kinase assay (ELISA or Alphascreen); conditions: read-out: Zap70 inhibition of enzyme activity
T5 sequence (P43403 338-600 limits assumed): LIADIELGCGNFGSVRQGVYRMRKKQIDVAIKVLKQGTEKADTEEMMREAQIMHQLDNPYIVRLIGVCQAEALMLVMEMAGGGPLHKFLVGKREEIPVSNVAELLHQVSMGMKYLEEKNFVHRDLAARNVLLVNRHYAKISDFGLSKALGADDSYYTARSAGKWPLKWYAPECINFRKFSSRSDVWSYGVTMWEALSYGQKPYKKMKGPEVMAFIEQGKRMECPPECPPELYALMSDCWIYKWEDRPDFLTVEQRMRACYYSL
In short: as §1

| Structure (SMILES) | inhibition at 10 µM (human JAK2) [%] | inhibition at 10 µM (human JAK3) [%] | inhibition at 10 µM (abl) [%] | inhibition at 10 µM (fes) [%] | inhibition at 10 µM (fms) [%] | inhibition at 10 µM (hck) [%] | inhibition at 10 µM (Zap70) [%] |
| --- | --- | --- | --- | --- | --- | --- | --- |
| COc1cc(-c2cncc(C(=O)OC(C)(C)C)c2)ccc1O | < 50 | < 50 | < 50 | < 50 | ≥ 50 | < 50 | < 50 |
| O=C(NCc1ccco1)c1cncc(-c2ccc(O)cc2)c1 | < 50 | < 50 | < 50 | < 50 | ≥ 50 | < 50 | < 50 |
| Cc1cc(-c2cncc(C(=O)NCc3ccncc3)c2)cc(C)c1O | < 50 | < 50 | < 50 | < 50 | ≥ 50 | < 50 | < 50 |
| Cc1cc(-c2cncc(C(=O)NCc3ccco3)c2)cc(C)c1O | < 50 | < 50 | < 50 | < 50 | < 50 | < 50 | ≥ 50 |
| Cc1cc(-c2cncc(C(=O)NC(C)C)c2)cc(C)c1O | < 50 | < 50 | < 50 | < 50 | < 50 | < 50 | ≥ 50 |
| Cc1ccc(F)cc1NC(=O)c1cncc(-c2ccc3c(c2)OCO3)c1 | < 50 | < 50 | < 50 | < 50 | < 50 | < 50 | < 50 |
| O=C(Nc1ccccc1)c1cncc(-c2cccs2)c1 | < 50 | < 50 | < 50 | ≥ 50 | < 50 | < 50 | < 50 |
| CC(C)NC(=O)c1cncc(-c2cccs2)c1 | < 50 | < 50 | < 50 | ≥ 50 | ≥ 50 | < 50 | < 50 |
| O=C(Nc1ccc(N2CCOCC2)cc1)c1cncc(-c2cccs2)c1 | < 50 | < 50 | < 50 | ≥ 50 | < 50 | < 50 | < 50 |
| Cc1ccc(F)cc1NC(=O)c1cncc(-c2cccs2)c1 | < 50 | < 50 | < 50 | < 50 | ≥ 50 | ≥ 50 | < 50 |
| CN(Cc1ccccc1)C(=O)c1cncc(-c2cccs2)c1 | < 50 | < 50 | < 50 | ≥ 50 | < 50 | < 50 | < 50 |
| CC(CCc1ccccc1)NC(=O)c1cncc(-c2cccs2)c1 (centres unmarked) | < 50 | < 50 | < 50 | ≥ 50 | < 50 | < 50 | < 50 |
| CC(NC(=O)c1cncc(-c2cccs2)c1)c1ccc(F)cc1 (centres unmarked) | < 50 | < 50 | < 50 | ≥ 50 | < 50 | < 50 | < 50 |
| O=C(Nc1ccccc1)c1cncc(-c2cccnc2)c1 | < 50 | < 50 | < 50 | < 50 | < 50 | < 50 | ≥ 50 |
| COc1ccc(NC(=O)c2cncc(-c3cccnc3)c2)c(OC)c1 | ≥ 50 | ≥ 50 | < 50 | < 50 | ≥ 50 | < 50 | < 50 |
| CN(C)CCNC(=O)c1cncc(-c2ccc(F)cc2)c1 | < 50 | < 50 | < 50 | < 50 | < 50 | < 50 | < 50 |
| COc1cccc([C@H](C)NC(=O)c2cncc(-c3ccc(F)cc3)c2)c1 | < 50 | < 50 | < 50 | < 50 | < 50 | < 50 | ≥ 50 |
| COc1cc(CNC(=O)c2cncc(-c3cc(OC)c(OC)c(OC)c3Cl)c2)cc(OC)c1 | ≥ 50 | < 50 | < 50 | < 50 | < 50 | < 50 | ≥ 50 |
| COc1cc(CNC(=O)c2cncc(-c3cccc(OC)c3)c2)cc(OC)c1 | < 50 | < 50 | < 50 | < 50 | < 50 | < 50 | ≥ 50 |
| COc1cccc(-c2cncc(C(=O)NCc3ccco3)c2)c1 | < 50 | < 50 | < 50 | < 50 | < 50 | < 50 | ≥ 50 |
| COc1ccc(CNC(=O)c2cncc(-c3cccc(OC)c3)c2)cc1 | < 50 | < 50 | < 50 | < 50 | < 50 | < 50 | ≥ 50 |
| COc1cccc(-c2cncc(C(=O)NCc3ccc(C)cc3)c2)c1 | < 50 | < 50 | < 50 | < 50 | < 50 | < 50 | ≥ 50 |
| COc1cccc(-c2cncc(C(=O)NCCc3ccccc3)c2)c1 | < 50 | < 50 | < 50 | < 50 | < 50 | < 50 | ≥ 50 |
| COc1cccc(-c2cncc(C(=O)N[C@@H](C)c3cccc(OC)c3)c2)c1 | < 50 | < 50 | < 50 | < 50 | < 50 | < 50 | ≥ 50 |
| COc1cccc(-c2cncc(C(=O)Nc3cc(C)ccc3C)c2)c1 | < 50 | < 50 | < 50 | < 50 | < 50 | ≥ 50 | ≥ 50 |
| COc1cc(-c2cncc(C(=O)Nc3ccc(F)cc3C)c2)ccc1O | < 50 | < 50 | ≥ 50 | < 50 | < 50 | ≥ 50 | < 50 |
